# Test results as given in patent publication US8022225B2, “Triazole derivative” (Taisho Pharmaceutical Co., Ltd, priority 2004, dated 2011).
# Legend:
# human Edg-1(S1P1) [1] = molecular target: T1, human Edg-1(S1P1) (Homo sapiens, UniProt P21453); assay: Cell system binding test: inhibition of [3H]-S1P binding to Edg-1(S1P1) gene transferred HEK-293 cells; details: 10 μM compound, [3H]-S1P 10 nM, read-out: Cell system binding test % inhibition (10 μM)
# T1 construct: expressed in transfected cells; host or cells: HEK-293
# human Edg-1(S1P1) [2] = molecular target: T1, human Edg-1(S1P1); assay: Membrane system binding test: inhibition of [33P]-S1P binding to the membrane fraction of Edg-1(S1P1) gene transferred HEK-293 cells; details: 10 μM compound; [33P]-S1P 0.1 nM; membrane fraction of Edg-1(S1P1) gene transferred HEK-293 cells; read-out: Membrane system binding test % inhibition (10 μM)
# In short: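 Compound tested at 10^−5 M final (0.1% DMSO) for blocking 0.1 nM [^33P]-S1P binding to S1P1-expressing HEK-293 membranes, 30 °C, 1 h. Radioactivity retained on filters was counted, and percent inhibition derived relative to vehicle binding, correcting for the background of non-transfected HEK-293 membranes.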
# T1 sequence (P21453 whole entry): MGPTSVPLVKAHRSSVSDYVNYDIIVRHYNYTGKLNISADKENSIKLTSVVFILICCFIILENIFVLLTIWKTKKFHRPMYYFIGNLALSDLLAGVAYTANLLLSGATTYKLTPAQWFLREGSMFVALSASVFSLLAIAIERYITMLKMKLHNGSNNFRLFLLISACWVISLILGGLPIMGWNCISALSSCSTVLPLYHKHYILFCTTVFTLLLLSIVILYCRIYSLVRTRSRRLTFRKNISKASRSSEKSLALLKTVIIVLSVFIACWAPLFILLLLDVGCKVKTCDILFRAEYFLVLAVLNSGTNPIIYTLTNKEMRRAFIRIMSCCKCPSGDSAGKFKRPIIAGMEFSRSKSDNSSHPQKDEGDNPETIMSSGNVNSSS
Compound,inhibition at 10 µM (human Edg-1(S1P1) [1]) [%],inhibition at 10 µM (human Edg-1(S1P1) [2]) [%]
CCn1c(OC)nnc1[C@@H](C)NS(=O)(=O)c1ccc(C(C)=O)cc1 [Compound 199],93,54.9
CCn1c(OC)nnc1[C@@H](C)NS(=O)(=O)c1ccc(Br)cc1 [Compound 200],97.4,93.3
CCn1c(OC)nnc1[C@H](C)NS(=O)(=O)c1ccc(C(C)(C)C)cc1 [Compound 201],92.6,45.3
CCCCS(=O)(=O)N[C@H](C)c1nnc(OC)n1CC [Compound 202],96.6,60.3
CCn1c(OC)nnc1[C@@H](C)NS(=O)(=O)c1cc(Br)c(Br)s1 [Compound 203],97.9,88.3
CCn1c(OC)nnc1[C@H](C)NS(=O)(=O)c1ccccc1Br [Compound 204],97.8,45.4
CCCCOc1ccc(S(=O)(=O)N[C@@H](C)c2nnc(OC)n2CC)cc1 [Compound 205],99.6,47.4
CCn1c(OC)nnc1[C@@H](C)NS(=O)(=O)c1cccc(Br)c1 [Compound 206],103,86.2
CCCCc1ccc(S(=O)(=O)N[C@H](C)c2nnc(OC)n2CC)cc1 [Compound 207],95.8,43.5
CCn1c(OC)nnc1[C@@H](C)NS(=O)(=O)c1ccc(Br)s1 [Compound 208],99.9,93
CCn1c(OC)nnc1[C@H](C)NS(=O)(=O)c1ccc(Cl)c([N+](=O)[O-])c1 [Compound 209],91.4,104
CCn1c(OC)nnc1[C@@H](C)NS(=O)(=O)CCCCl [Compound 210],91.8,46.6
CCn1c(OC)nnc1[C@@H](C)NS(=O)(=O)c1ccc(NC(C)=O)c(Cl)c1 [Compound 211],93.9,46.9
CCn1c(OC)nnc1[C@@H](C)NS(=O)(=O)c1ccccc1C#N [Compound 212],92.4,45.6
CCn1c(OC)nnc1[C@@H](C)NS(=O)(=O)c1cccc(C#N)c1 [Compound 213],96.2,66.1
CCn1c(OC)nnc1[C@@H](C)NS(=O)(=O)c1sc2ccc(Cl)cc2c1C [Compound 214],96.8,59.3
CCn1c(OC)nnc1[C@@H](C)NS(=O)(=O)c1ccc(C)c(Cl)c1 [Compound 215],98.3,94.4
CCn1c(OC)nnc1[C@@H](C)NS(=O)(=O)c1cc(Cl)cc(Cl)c1O [Compound 216],97.2,63.7
CCn1c(OC)nnc1[C@@H](C)NS(=O)(=O)c1cc(Cl)sc1Cl [Compound 217],97.4,62.3
CCn1c(OC)nnc1[C@@H](C)NS(=O)(=O)c1cccc2c(N(C)C)cccc12 [Compound 218],101,40.2
CCn1c(OC)nnc1[C@@H](C)NS(=O)(=O)c1cc(Cl)c(Cl)s1 [Compound 220],97.2,98

Compound,inhibition at 10 µM (human Edg-1(S1P1) [1]) [%],inhibition at 10 µM (human Edg-1(S1P1) [2]) [%]
CCn1c(OC)nnc1[C@@H](C)NS(=O)(=O)c1ccc(OC)c(OC)c1 [Compound 221],89.9,56.1
CCc1ccc(S(=O)(=O)N[C@H](C)c2nnc(OC)n2CC)cc1 [Compound 222],92.9,71.8
CCn1c(OC)nnc1[C@@H](C)NS(=O)(=O)c1ccc(F)cc1 [Compound 223],95.5,70.4
CCn1c(OC)nnc1[C@@H](C)NS(=O)(=O)C(C)C [Compound 224],92.2,54.5
CCn1c(OC)nnc1[C@@H](C)NS(=O)(=O)c1ccc(OC)cc1 [Compound 226],92.3,42.4
CCn1c(OC)nnc1[C@@H](C)NS(C)(=O)=O [Compound 227],92.6,52
CCn1c(OC)nnc1[C@@H](C)NS(=O)(=O)c1cccc2ccccc12 [Compound 229],102,61.1
CCn1c(OC)nnc1[C@@H](C)NS(=O)(=O)c1ccc2ccccc2c1 [Compound 230],103,102
CCn1c(OC)nnc1[C@@H](C)NS(=O)(=O)c1ccccc1[N+](=O)[O-] [Compound 231],96.6,40.3
CCn1c(OC)nnc1[C@@H](C)NS(=O)(=O)c1ccc([N+](=O)[O-])cc1 [Compound 233],99.8,93.2
CCn1c(OC)nnc1[C@@H](C)NS(=O)(=O)CCc1cccc2ccccc12 [Compound 235],111,63.8
CCn1c(OC)nnc1[C@@H](C)NS(=O)(=O)c1c(F)c(F)c(F)c(F)c1F [Compound 237],95.4,52.5
CCn1c(OC)nnc1[C@@H](C)NS(=O)(=O)c1ccc(I)cc1 [Compound 238],99.1,79.1
CCn1c(OC)nnc1[C@@H](C)NS(=O)(=O)c1cccc2cccnc12 [Compound 240],93.4,70.3
CCn1c(OC)nnc1[C@@H](C)NS(=O)(=O)/C=C/c1ccccc1 [Compound 241],102,80.5
CCn1c(OC)nnc1[C@@H](C)NS(=O)(=O)c1cccs1 [Compound 242],100,49.9
CCn1c(OC)nnc1[C@@H](C)NS(=O)(=O)c1ccc(C)cc1 [Compound 243],102,66
CCn1c(OC)nnc1[C@@H](C)NS(=O)(=O)c1cccc(C(F)(F)F)c1 [Compound 245],96.8,87.7
CCn1c(OC)nnc1[C@@H](C)NS(=O)(=O)c1ccccc1C [Compound 246],98.1,61.8
CCn1c(OC)nnc1[C@@H](C)NS(=O)(=O)c1ccc(OC(F)(F)F)cc1 [Compound 247],95.3,52
CCn1c(OC)nnc1[C@@H](C)NS(=O)(=O)c1cccc(C)c1 [Compound 248],99.5,83.3

# Next, values leading:
inhibition at 10 µM (human Edg-1(S1P1) [1]) [%],inhibition at 10 µM (human Edg-1(S1P1) [2]) [%],Compound
101,86.3,CCn1c(OC)nnc1[C@@H](C)NS(=O)(=O)c1ccc(C(F)(F)F)cc1 [Compound 249]
88.7,42.9,CCn1c(OC)nnc1[C@@H](C)NS(=O)(=O)c1cc(S(=O)(=O)c2ccccc2)cs1 [Compound 250]
102,106,CCn1c(OC)nnc1[C@@H](C)NS(=O)(=O)c1cnc(Cl)c(Br)c1 [Compound 251]
103,100,CCn1c(OC)nnc1[C@@H](C)NS(=O)(=O)c1cc(Br)c(Cl)s1 [Compound 252]
96.3,48.3,CCn1c(OC)nnc1[C@@H](C)NS(=O)(=O)c1ccsc1C(=O)OC [Compound 255]
95.7,58.1,CCn1c(OC)nnc1[C@@H](C)NS(=O)(=O)c1cc(C(=O)OC)c(C)o1 [Compound 257]
89.4,46.9,CCn1c(OC)nnc1[C@@H](C)NS(=O)(=O)c1ccccc1C(F)(F)F [Compound 260]
94.5,56.7,CCn1c(OC)nnc1[C@@H](C)NS(=O)(=O)c1ccc(-c2ccccc2)cc1 [Compound 261]
96.5,68.8,CCCc1ccc(S(=O)(=O)N[C@H](C)c2nnc(OC)n2CC)cc1 [Compound 262]
95.8,42.7,CCn1c(OC)nnc1[C@@H](C)NS(=O)(=O)c1ccc(C)cc1OC [Compound 264]
98.2,69.5,CCn1c(OC)nnc1[C@@H](C)NS(=O)(=O)c1cc(C(F)(F)F)cc(C(F)(F)F)c1 [Compound 265]
97,83,CCn1c(OC)nnc1[C@@H](C)NS(=O)(=O)c1cc(Cl)cc(Cl)c1 [Compound 266]
99.9,89.4,CCn1c(OC)nnc1[C@@H](C)NS(=O)(=O)c1cccc(Cl)c1C [Compound 267]
98.7,88.6,CCn1c(OC)nnc1[C@@H](C)NS(=O)(=O)c1ccc(F)c(Cl)c1 [Compound 268]
96.3,74.5,CCn1c(OC)nnc1[C@@H](C)NS(=O)(=O)c1cccc(OC)c1 [Compound 269]
94.8,61.3,CCn1c(OC)nnc1[C@@H](C)NS(=O)(=O)c1cc(F)c(Br)cc1F [Compound 270]
102,94.3,CCn1c(OC)nnc1[C@@H](C)NS(=O)(=O)c1ccc(Br)c(Br)c1 [Compound 272]
94.3,68.4,CCn1c(OC)nnc1[C@@H](C)NS(=O)(=O)c1cc(C)ccc1OC [Compound 273]
102,104,CCn1c(OC)nnc1[C@@H](C)NS(=O)(=O)c1ccc(Cl)c(Cl)c1 [Compound 274]
99.4,71.9,CCn1c(OC)nnc1[C@@H](C)NS(=O)(=O)c1cccc(OC(F)(F)F)c1 [Compound 275]
99.7,51.4,CCn1c(OC)nnc1[C@@H](C)NS(=O)(=O)c1ccc(C#N)cc1 [Compound 277]
